Patent publication US20100233737A1, “MARKER SPECIFIC TO AN OXIDATIVE DEGRADATION OF TISSUES CONTAINING TYPE III COLLAGEN, MEANS AND METHODS AND KITS FOR THE DIAGNOSIS, MONITORING OR PROGNOSIS OF PATHOLOGIES TARGETED BY THIS MARKER” (priority 2006, published 2010)
No end group written: not given here.

Tested on: antiserum anti-IIINys (polyclonal, directed against SEQ ID No. 2)
Assay: Competitive ELISA, specificity of the antiserum anti IIINys vis-à-vis different peptides
Assay type: binding, rabbit
Conditions: biotinylated IIINys coated on plate, competitor peptide in solution
Description: FIG. 4 illustrates the specificity of the polyclonal antibodies prepared vis-à-vis the IIINys, with respect to other synthetic peptides. B/B0 represents the ratio between the quantity of anti-IIINys antibodies fixed to the antigen fixed (“coated”) onto the plate in the presence of competitor compound (B) and in the absence of competitor compound (B0).
Rabbits were injected by intra-peritoneal route with the peptide conjugated to KLH emulsified with Freund's complete adjuvant. This operation was repeated 3 times over three months using the same peptide with Freund's incomplete adjuvant. After each injection a sample of rabbit blood was taken. This blood was left to coagulate for 30 minutes and the whole sample was centrifuged for 10 minutes at 2500 rpm in order to recover the serum. Ten days after the last injection, the rabbits were sacrificed and all the blood was recovered. Each serum sample was titrated by ELISA technique in the presence of the synthetic peptide. The antiserum with the best titre was selected for the finalization of the competitive ELISA (Harlow and Lane, 1988a).
The peptide conjugated to the biotin diluted with the coating buffer is adsorbed on plates avidinated for 2 hours at ambient temperature. After washing, 50 μl of antisera diluted to the optimum titre are added to 50 μl of standard (synthetic peptide diluted in buffer) or to 50 μl of samples to be assayed and are left to incubate overnight at 4° C. After washing, 100 μl of secondary antibodies coupled to the peroxidase directed against the rabbit immunoglobulins are added over one hour at ambient temperature. The wells are washed and 100 μl of substrate (TMB) are added. The reaction is stopped with 100 μl of H2SO4.
The antiserum selected was tested vis-à-vis different peptides according to the ELISA method described previously in order to verify its specificity (FIG. 4). The peptides tested are: the peptide IIINys of sequence SEQ ID No. 2 (the immunogenic peptide), the peptide of sequence SEQ ID No. 3 (the peptide IIINys with only the first tyrosine nitrosylated), the peptide of sequence SEQ ID No. 4 (the peptide IIINys with only the second tyrosine nitrosylated), the peptide of sequence SEQ ID No. 9 (the peptide IIINys with an additional amino acid on the N-terminal side), the peptide of sequence SEQ ID No. 8 (the peptide IIINys with its tyrosines non nytrosylated), 3-nitrotyrosine (FIG. 2), with the nitrosylated BSA of sequence SEQ ID No. 11.

| Compound | competition with the peptide IIINys (SEQ ID No. 2) adsorbed on the plate for the antiserum (B/B0, FIG. 4) |
| --- | --- |
| N[C@@H](Cc1ccc(O)c([N+](=O)[O-])c1)C(=O)O [3-nitrotyrosine, reference compound] | not capable of entering into competition |
| PQY*DSY*DVKSG (PQYDSYDVKSG; not fully specified (residues 3, 6); printed as PQY*DSY*DVKSG) [SEQ ID No. 9, the peptide IIINys with an additional amino acid on the N-terminal side, reference compound] | not capable of entering into competition |
| QYDSY*DVKSG [SEQ ID No. 4, the peptide IIINys with only the second tyrosine nitrosylated] | less affinity than for the peptide IIINys |
| QYDSYDVKSG [SEQ ID No. 8, the peptide IIINys with its tyrosines non nitrosylated] | not capable of entering into competition |
| QY*DSYDVKSG [SEQ ID No. 3, the peptide IIINys with only the first tyrosine nitrosylated] | less affinity than for the peptide IIINys |
